# Laboratory results taken from patent US4518613A, “Thioalkanoyl-carnitines, process for their preparation and mucolytic pharmaceutical compositions containing same” (priority 1981, dated 1985).
# Key:
# bronchial secretion = assay: Expectorant activity: bronchial secretion in anesthetized rabbits (method of Perry et al.); format: in vivo; conditions: oral, rabbit, 20 to 40 mg
# Experimental: The tests were carried out on male rabbits, weighing 2-3 Kg, anesthetized with ethyl urethane, by following the method disclosed by Perry et al. (J. Pharm. Exp. Ther. 73, 65, 1941).
# Each cannula was connected to a feeding device which delivered a steady flow-rate of pre-heated air (36°-38° C.) at constant humidity (80%). At the lower end of each cannula, a graduated cylinder was fitted, wherein the bronchial secretion was collected. All of the animals breathed spontaneously and consequently they self-regulated the air intake suitable for normal respiration. After an hour following cannula insertion, the animals were administered oraly (by stomach tube) the compounds of general formula (I) dissolved in distilled water at doses comprised between 20 and 40 mg. […] The control animals (8) were given water only. The amount of secretion was determined after 1, 2 and 4 hours from administration.
# [1] = Acute toxicity, LD50 by the Weil method, e.p. administration in mouse; conditions: in vivo, ip, Weil method N = 4, K = 4
# From the text: LD50 of the compounds of general formula (I) assessed with the Weil method ("Tables for convenient calculation of median effective dose (LD50 or ED50) and instructions in their use", Biometrics, 249-253, 1952), by e.p. administration in mouse is shown in Table 1.
# LD50 and fiducial limits, mg/Kg e.p., of the compounds of for-
# mula (I). Weil method N = 4, K = 4.
# [2] = Mucolytic activity in vitro: modification of human sputum density by thromboelastograph (method of Morandini et al.)
# Experimental: The tests were carried out in vitro by using the method disclosed by Morandini et al. (Lotta contro la tubercolosi 47, n. 4, 1977). A thromboelastograph was used to follow the variations induced by the compounds of general formula (I) and acetylcysteine on the rheological properties of human sputum.
Structure (SMILES),Percentage variations ± s.e. of bronchial secretion versus basal values (bronchial secretion; 1 hour after administration),Percentage variations ± s.e. of bronchial secretion versus basal values (bronchial secretion; 2 hours after administration),Percentage variations ± s.e. of bronchial secretion versus basal values (bronchial secretion; 4 hours after administration),LD50 [1],Percentage drop of the tracing versus maximum peak (mucolytic activity index) ([2]; after addition of 1 ml of a 10% solution at dilution 1/30),Percentage drop of the tracing versus maximum peak (mucolytic activity index) ([2]; after addition of 1 ml of a 10% solution at dilution 1/60)
"CC(=O)SCCCCC(=O)OC(CC(=O)O)C[N+](C)(C)C (centres unmarked) [ST-412, 5-thioacetyl pentanoyl-carnitine]",+1.3 ± 0.04 Percentage,+2.1 ± 0.05 Percentage,+3.1 ± 0.03 Percentage,1540 mg/kg,–,–
"CC(=O)SC(C)CC(=O)OC(CC(=O)O)C[N+](C)(C)C (centres unmarked) [ST-406, 3-thioacetyl butyryl carnitine]",+1.4 ± 0.05 Percentage,+1.9 ± 0.05 Percentage,+3.4 ± 0.04 Percentage,97 mg/kg,–,–
"CC(=O)SCCC(=O)OC(CC(=O)O)C[N+](C)(C)C (centres unmarked) [ST-405, 3-thioacetyl propionyl-carnitine]",+1.1 ± 0.03 Percentage,+1.9 ± 0.04 Percentage,+3.6 ± 0.05 Percentage,378 mg/kg,–,–
"CC(=O)N[C@@H](CS)C(=O)O [Acetylcysteine, acetylcysteine]",–,–,–,–,84 Percentage,55 Percentage
